According to patent publication US20240109900A1, “AZABICYCLIC SHP2 INHIBITORS” (IRBM S.P.A., priority 2021, published 2024):
Like-named read-outs stand apart in the source and are kept apart here.

Key:
[1] = molecular target: SHP-2 enzyme (Met1-Leu525) (Homo sapiens (Human), UniProt Q06124); assay: SHP2 inhibition enzymatic assay; format: biochemical; conditions: 0.5 nM SHP-2 activated by 500 nM IRS1 peptide, 75 μM DiFMUP substrate; read-out: SHP2wt-IC50
Outline: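 Compounds were preincubated 30 min with 0.5 nM SHP-2 (Met1-Leu525) plus 500 nM IRS1 activating peptide (pH 7.2 HEPES, 5 mM DTT), then 75 μM DiFMUP substrate reacted 30 min at room temperature. After bpV quench, DiFMUP fluorescence gave % inhibition; four-parameter logistic fit yielded IC50.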

[2] = system: ERK phosphorylation in KYSE-520 cells; assay: Phospho-ERK cellular assay; format: cell-based; conditions: KYSE-520 cells, 2 h at 37° C., phospho-ERK1/2 (Thr202/Tyr204) TR-FRET, read-out: PERK IC50
Outline: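 TR-FRET read-out of ERK1/2 Thr202/Tyr204 phosphorylation was taken after overnight antibody incubation at room temperature. Before that, KYSE-520 cells were treated 2 h at 37 °C with compound dilutions and lysed 30 min. Percent inhibition relative to vehicle and cell-free wells was fitted four-parametrically to give IC50.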

Sequence of SHP-2 enzyme (Met1-Leu525) (Q06124 1-525): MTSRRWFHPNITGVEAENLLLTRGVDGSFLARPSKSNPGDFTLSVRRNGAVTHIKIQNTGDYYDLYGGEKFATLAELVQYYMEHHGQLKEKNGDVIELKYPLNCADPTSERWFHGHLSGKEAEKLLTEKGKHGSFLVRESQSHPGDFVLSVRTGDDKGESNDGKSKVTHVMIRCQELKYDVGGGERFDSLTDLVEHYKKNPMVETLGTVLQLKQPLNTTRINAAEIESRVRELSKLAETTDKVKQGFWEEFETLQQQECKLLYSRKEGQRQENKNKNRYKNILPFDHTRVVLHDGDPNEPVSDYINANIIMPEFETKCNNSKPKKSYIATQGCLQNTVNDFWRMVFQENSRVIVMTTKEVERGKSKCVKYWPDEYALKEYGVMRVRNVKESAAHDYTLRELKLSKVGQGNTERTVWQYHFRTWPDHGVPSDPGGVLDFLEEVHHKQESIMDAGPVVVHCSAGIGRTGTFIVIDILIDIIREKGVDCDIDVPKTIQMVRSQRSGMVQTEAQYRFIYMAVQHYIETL

| IC50 [1] [µM] | IC50 ([2]; Homo sapiens, KYSE-520, 2 h) [µM] | IC50 [2] [µM] | SMILES |
| --- | --- | --- | --- |
| < 0.5 | < 1 | – | NC[C@]1(c2ccccc2F)[C@@H]2CCN(c3cnc4c(-c5ccc6c(c5)CCN6)n[nH]c4n3)C[C@@H]21 [Example 312, ((1S,6R,7R)-7-(2-fluorophenyl)-3-(3-(indolin-5-yl)-1H-pyrazolo[3,4-b]pyrazin-6-yl)-3-azabicyclo[4.1.0]heptan-7-yl)methanamine] |
| < 0.5 | < 1 | – | Cc1cc2ncccc2cc1-c1n[nH]c2nc(N3CC[C@@H]4[C@H](C3)[C@@]4(CN)c3ccccc3F)cnc12 [Example 171, ((1S,6R,7R)-7-(2-fluorophenyl)-3-(3-(7-methylquinolin-6-yl)-1H-pyrazolo[3,4-b]pyrazin-6-yl)-3-azabicyclo[4.1.0]heptan-7-yl)methanamine] |
| < 0.5 | < 1 | – | NC[C@]1(c2ccccc2)[C@@H]2CN(c3cnc4c(-c5cc(F)c6ncccc6c5)n[nH]c4n3)C[C@@H]21 [Example 455, ((1R,5S,6s)-3-(3-(8-fluoroquinolin-6-yl)-1H-pyrazolo[3,4-b]pyrazin-6-yl)-6-phenyl-3-azabicyclo[3.1.0]hexan-6-yl)methanamine] |
| < 0.5 | < 1 | – | NC[C@]1(c2ccccc2F)[C@@H]2CCN(c3cnc4c(-c5ccc(N6CCCC6=O)cc5Cl)n[nH]c4n3)C[C@@H]21 [Example 326, 1-(4-(6-((1S,6R,7R)-7-(aminomethyl)-7-(2-fluorophenyl)-3-azabicyclo[4.1.0]heptan-3-yl)-1H-pyrazolo[3,4-b]pyrazin-3-yl)-3-chlorophenyl)pyrrolidin-2-one] |
| < 0.5 | < 1 | – | COc1cc2ccc(-c3n[nH]c4nc(N5CC[C@@H]6[C@H](C5)[C@@]6(CN)c5ccccc5F)cnc34)cc2nn1 [Example 262, ((1S,6R,7R)-7-(2-fluorophenyl)-3-(3-(3-methoxycinnolin-7-yl)-1H-pyrazolo[3,4-b]pyrazin-6-yl)-3-azabicyclo[4.1.0]heptan-7-yl)methanamine] |
| < 0.5 | < 1 | – | Cc1nc(N)ccc1-c1n[nH]c2nc(N3CC[C@@H]4[C@H](C3)[C@@]4(CN)c3ccccc3F)cnc12 [Example 368, 5-(6-((1S,6R,7R)-7-(aminomethyl)-7-(2-fluorophenyl)-3-azabicyclo[4.1.0]heptan-3-yl)-1H-pyrazolo[3,4-b]pyrazin-3-yl)-6-methylpyridin-2-amine] |
| < 0.5 | < 1 | – | NC[C@]1(c2ccccc2F)[C@@H]2CCN(c3cnc4c(-c5ccc6ncncc6c5)n[nH]c4n3)C[C@@H]21 [Example 290, ((1S,6R,7R)-7-(2-fluorophenyl)-3-(3-(quinazolin-6-yl)-1H-pyrazolo[3,4-b]pyrazin-6-yl)-3-azabicyclo[4.1.0]heptan-7-yl)methanamine] |
| < 0.5 | – | < 1 | COc1ccc(-c2n[nH]c3nc(N4CC[C@@H]5[C@H](C4)[C@@]5(CN)c4ccccc4F)cnc23)cc1F [Example 399] |
| < 0.5 | < 1 | – | Cc1cc(-c2n[nH]c3nc(N4CC[C@@H]5[C@H](C4)[C@@]5(CN)c4ccccc4F)cnc23)ccc1C(N)=O [Example 246, 4-(6-((1S,6R,7R)-7-(aminomethyl)-7-(2-fluorophenyl)-3-azabicyclo[4.1.0]heptan-3-yl)-1H-pyrazolo[3,4-b]pyrazin-3-yl)-2-methylbenzamide] |
| < 0.5 | < 1 | – | NC[C@]1(c2ccccc2F)[C@@H]2CCN(c3cnc4c(-c5cccc6ncccc56)n[nH]c4n3)C[C@@H]21 [Example 242, ((1S,6R,7R)-7-(2-fluorophenyl)-3-(3-(quinolin-5-yl)-1H-pyrazolo[3,4-b]pyrazin-6-yl)-3-azabicyclo[4.1.0]heptan-7-yl)methanamine] |
| < 0.5 | < 1 | – | NC[C@]1(c2ncccc2F)[C@@H]2CCN(c3cnc4c(-c5cccn6nccc56)n[nH]c4n3)C[C@@H]21 [Example 140, ((1S,6R,7S)-7-(3-fluoropyridin-2-yl)-3-(3-(pyrazolo[1,5-a]pyridin-4-yl)-1H-pyrazolo[3,4-b]pyrazin-6-yl)-3-azabicyclo[4.1.0]heptan-7-yl)methanamine] |
| < 0.5 | > 5 | – | NC[C@]1(c2ccccc2F)[C@@H]2CCN(c3cnc4c(-c5ccc6nccc(N)c6c5)n[nH]c4n3)C[C@@H]21 [Example 258, 6-(6-((1S,6R,7R)-7-(aminomethyl)-7-(2-fluorophenyl)-3-azabicyclo[4.1.0]heptan-3-yl)-1H-pyrazolo[3,4-b]pyrazin-3-yl)quinolin-4-amine] |
| < 0.5 | < 1 | – | NCC1(c2cccc(F)c2)C2CCN(c3cnc4c(-c5cccc(Cl)c5Cl)n[nH]c4n3)CC21 (stereo not drawn) [Example 7, (3-(3-(2,3-dichlorophenyl)-1H-pyrazolo[3,4-b]pyrazin-6-yl)-7-(3-fluorophenyl)-3-azabicyclo[4.1.0]heptan-7-yl)methanamine] |
| < 0.5 | < 1 | – | NC[C@]1(c2ccccc2F)[C@@H]2CCN(c3cnc4c(-c5ccc(F)c(O)c5F)n[nH]c4n3)C[C@@H]21 [Example 355, 3-(6-((1S,6R,7R)-7-(aminomethyl)-7-(2-fluorophenyl)-3-azabicyclo[4.1.0]heptan-3-yl)-1H-pyrazolo[3,4-b]pyrazin-3-yl)-2,6-difluorophenol] |

More lines, now with the values behind:

| SMILES | IC50 [1] [µM] | IC50 ([2]; Homo sapiens, KYSE-520, 2 h) [µM] | IC50 [2] [µM] |
| --- | --- | --- | --- |
| NCC1(c2ccsc2)C2CCN(c3cnc4c(-c5ccnc(C(F)(F)F)c5)n[nH]c4n3)CC21 (stereo not drawn) [Example 95, (7-(thiophen-3-yl)-3-(3-(2-(trifluoromethyl)pyridin-4-yl)-1H-pyrazolo[3,4-b]pyrazin-6-yl)-3-azabicyclo[4.1.0]heptan-7-yl)methanamine] | < 0.5 | 1 to 5 | – |
| NC[C@]1(c2ccccc2F)[C@@H]2CCN(c3cc(=O)n4cc(-c5cccc(Cl)c5Cl)ccc4n3)C[C@@H]21 [Example 408, 2-((1S,6R,7R)-7-(aminomethyl)-7-(2-fluorophenyl)-3-azabicyclo[4.1.0]heptan-3-yl)-7-(2,3-dichlorophenyl)-4H-pyrido[1,2-a]pyrimidin-4-one] | < 0.5 | > 5 | – |
| Cn1cc2c(Cl)c(-c3n[nH]c4nc(N5CCC6C(C5)C6(CN)c5cc(C6CC6)on5)cnc34)ccc2n1 (stereo not drawn) [Example 48, (3-(3-(4-chloro-2-methyl-2H-indazol-5-yl)-1H-pyrazolo[3,4-b]pyrazin-6-yl)-7-(5-cyclopropylisoxazol-3-yl)-3-azabicyclo[4.1.0]heptan-7-yl)methanamine] | < 0.5 | < 1 | – |
| Cc1csc([C@@]2(CN)[C@@H]3CN(c4cnc5c(-c6cccc(Cl)c6Cl)n[nH]c5n4)CC[C@@H]32)n1 [Example 437, ((1R,6S,7R)-3-(3-(2,3-dichlorophenyl)-1H-pyrazolo[3,4-b]pyrazin-6-yl)-7-(4-methylthiazol-2-yl)-3-azabicyclo[4.1.0]heptan-7-yl)methanamine] | < 0.5 | 1 to 5 | – |
| Cc1cc(C2(CN)C3CCN(c4nc5[nH]nc(-c6ccnc(N)c6Cl)c5nc4CO)CC32)no1 (stereo not drawn) [Example 58, (3-(2-amino-3-chloropyridin-4-yl)-6-(7-(aminomethyl)-7-(5-methylisoxazol-3-yl)-3-azabicyclo[4.1.0]heptan-3-yl)-1H-pyrazolo[3,4-b]pyrazin-5-yl)methanol] | < 0.5 | > 5 | – |
| Cn1cc2c(Cl)c(-c3n[nH]c4nc(N5C[C@@H]6[C@H](C5)[C@@]6(CN)c5c(F)cccc5F)cnc34)ccc2n1 [Example 221, ((1R,5S,6s)-3-(3-(4-chloro-2-methyl-2H-indazol-5-yl)-1H-pyrazolo[3,4-b]pyrazin-6-yl)-6-(2,6-difluorophenyl)-3-azabicyclo[3.1.0]hexan-6-yl)methanamine] | < 0.5 | < 1 | – |
| Cc1conc1C1(CN)C2CCN(c3cnc4c(-c5ccc6onc(C)c6c5)n[nH]c4n3)CC21 (stereo not drawn) [Example 52, (3-(3-(3-methylbenzo[d]isoxazol-5-yl)-1H-pyrazolo[3,4-b]pyrazin-6-yl)-7-(4-methylisoxazol-3-yl)-3-azabicyclo[4.1.0]heptan-7-yl)methanamine] | < 0.5 | < 1 | – |
| NC[C@]1(c2ccccc2F)[C@@H]2CCN(c3cnc(Sc4ccnc(N)c4Cl)c(N)n3)C[C@@H]21 [Example 384, 3-((2-amino-3-chloropyridin-4-yl)thio)-6-((1S,6R,7R)-7-(aminomethyl)-7-(2-fluorophenyl)-3-azabicyclo[4.1.0]heptan-3-yl)pyrazin-2-amine] | < 0.5 | < 1 | – |
| Cn1cc2c(Cl)c(-c3n[nH]c4nc(N5CC[C@@H]6[C@H](C5)[C@@]6(CN)c5ccon5)cnc34)ccc2n1 [Example 123, ((1S,6R,7S)-3-(3-(4-chloro-2-methyl-2H-indazol-5-yl)-1H-pyrazolo[3,4-b]pyrazin-6-yl)-7-(isoxazol-3-yl)-3-azabicyclo[4.1.0]heptan-7-yl)methanamine] | < 0.5 | < 1 | – |
| Cc1cc(C2(CN)C3CCN(c4nc5[nH]nc(-c6ccc7nn(C)cc7c6Cl)c5c(=O)n4C)CC32)no1 (stereo not drawn) [Example 62, 6-(7-(aminomethyl)-7-(5-methylisoxazol-3-yl)-3-azabicyclo[4.1.0]heptan-3-yl)-3-(4-chloro-2-methyl-2H-indazol-5-yl)-5-methyl-1,5-dihydro-4H-pyrazolo[3,4-d]pyrimidin-4-one] | < 0.5 | 1 to 5 | – |
